Patent US20210000842A1, “TETRACYCLINE MANAGEMENT OF EGFR INHIBITOR ASSOCIATED DERMATOSES” (Foamix Pharmaceuticals Ltd., priority 2015, published 2021)
“Also recorded” adds a separate entry of the source.

Experiments:
[1] = Compatibility study of minocycline hydrochloride with excipients (visual inspection); format: physicochemical; conditions: for Compatibility with MCH: hydrophilic solvents: MCH: excipient 1:250, suspension at 25° C. and 40° C. for maximum of sixty days; for Compatibility with Minocycline HCl: summary, tested after the storage for up to 3 weeks; for Compatibility with MCH: oily emollients and waxes: MCH:excipient 1:250 for oily emollients and 1:50 for waxes, max sixty days; for Compatibility with MCH: oily emollients and waxes / Compatibility with MCH: surfactants: 25° C. and 40° C.; for Compatibility with Minocycline HCl (discussion of compatibility studies): excipient named as label, storage up to 3 weeks; for Compatibility with MCH: surfactants: MCH:excipient 1:50, surfactant solubilized in mineral oil; for Effect of added antioxidant on MCH degradation: MCH suspensions comprising water or non-compatible excipients; for Effect of added anti-oxidant on oxidation of Minocycline HCl: waterless medium of propylene glycol and PEG 200
Procedure: (§1) Active agent is incubated with various excipients individually at one or more temperatures and at different ratios of active agent to a single excipient for a certain fixed period or to the point where degradation was suspected. […] Visual inspection is a criterion for indication of compatibility. Any change of color indicates oxidation or degradation. […] Tests are also carried out with combinations of excipients.

[2] = Doxycycline Monohydrate compatibility test; format: physicochemical; conditions: for Visual inspection after the storage at 25° C. / Visual inspection after the storage at 50° C. / Visual inspection after the storage at 40° C. / Visual inspection at T-0: mixture of 1.04% w/w Doxycycline Monohydrate with the ingredient; for Visual inspection after the storage at 25° C. / Visual inspection after the storage at 50° C. / Visual inspection after the storage at 40° C.: stored two weeks; for Visual inspection at T-0: two weeks study; for Effect of added anti-oxidant on oxidation of Doxycycline Monohydrate: waterless medium of propylene glycol and PEG 200
Procedure: Active agent is incubated with various excipients individually at one or more temperatures and at different ratios of active agent to a single excipient for a certain fixed period or to the point where degradation was suspected. The period can be for example 3 or 7 or 14 or 21 or 28 days or longer. Visual inspection is a criterion for indication of compatibility. Any change of color indicates oxidation or degradation. […] Tests are also carried out with combinations of excipients.
(§2) A similar compatibility study was conducted for Doxycycline Hyclate and Doxycycline Monohydrate.
(§3) Different compositions of hydrophilic and hydrophobic solvents containing Doxycycline Hyclate (Set I and Set II) and Doxycycline Monohydrate (Set III) were prepared by weighing the antibiotic in a glass vial and shaking overnight with each solvent investigated.
A similar compatibility test was performed on another form of Doxycycline—Doxycycline Monohydrate.

[3] = Doxycycline Hyclate compatibility test; format: physicochemical; conditions: for Visual inspection after the storage at 50° C. / Visual inspection after the storage at 25° C. / Visual inspection after the storage at 40° C.: stored two weeks; for Effect of added anti-oxidant on oxidation of Doxycycline Hyclate: waterless medium of propylene glycol and PEG 200
Procedure: as §1, §2, §3
Group II included Doxycycline Hyclate mixed with various vehicles with addition of antioxidants like alpha tocopherol, butylated hydroxytoluene (BHT), and ascorbic acid.

mouse = conditions: cited from earlier work
[4] = tested on: patients treated with EGFR inhibitors; conditions: patients treated with the EGFR inhibitor (Erlotinib 150 mg QD); cited from earlier work
[5] = tested on: EGFR inhibitor-induced rash; conditions: cited from earlier work
[6] = cited from earlier work
[7] = MCH:excipient 1:50, 25° C. and 40° C., visual inspection
[8] = summary, tested after the storage for up to 3 weeks
[9] = mixture of 1.04% w/w Doxycycline Hyclate with the ingredient
[10] = mixtures of 1.04% w/w, excipient named as label, storage at 25° C., 40° C. and 50° C. for two weeks, listed as Ethanol 95%
[11] = mixtures of 1.04% w/w, excipient named as label, storage at 25° C., 40° C. and 50° C. for two weeks, listed as ethanol 95%
[12] = mixtures of 1.04% w/w, excipient named as label, storage at 25° C., 40° C. and 50° C. for two weeks

## CCCCCCCCCCCCCCCCCCCCCCO [Behenyl alcohol]
[1]; [7]
  Compatibility with MCH: foam adjuvants: compatible

## OCCCCO [Butylene Glycol]
[2]
  Visual inspection after the storage at 25° C.: Orange solution
  Visual inspection after the storage at 50° C.: black solution
[2]; [8]
  Compatibility with Doxycycline Monohydrate: No
[1]; visual inspection
  Compatibility with MCH: hydrophilic solvents: incompatible
[1]
  Compatibility with Minocycline HCl: No
[3]; [9]
  Visual inspection after the storage at 50° C.: Light orange solution
[3]; [8]
  Compatibility with Doxycycline Hyclate: No

## CCCCCCCCCCCCCCCCO [Cetyl alcohol]
[1]; [7]
  Compatibility with MCH: foam adjuvants: compatible

## C[Si]1(C)O[Si](C)(C)O[Si](C)(C)O[Si](C)(C)O[Si](C)(C)O1 [Cyclomethicone 5 NF]
[2]; [8]
  Compatibility with Doxycycline Monohydrate: Yes
[1]
  Compatibility with Minocycline HCl: Yes
[3]; [8]
  Compatibility with Doxycycline Hyclate: Yes

## CCOCCOCCO [Diethylene glycol monoethyl ether]
[1]; visual inspection
  Compatibility with MCH: hydrophilic solvents: incompatible

## CC(C)OC(=O)CCCCC(=O)OC(C)C [Diisopropyl adipate]
[2]; [8]
  Compatibility with Doxycycline Monohydrate: No
[1]
  Compatibility with Minocycline HCl: Yes
[3]; [8]
  Compatibility with Doxycycline Hyclate: Yes

## CO[C@H]1CO[C@H]2[C@@H]1OC[C@H]2OC [Dimethyl Isosorbide]
[2]
  Visual inspection after the storage at 25° C.: orange solution
  Visual inspection after the storage at 40° C.: orange solution
  Visual inspection after the storage at 50° C.: Orange solution
  Visual inspection at T-0: yellow solution
[2]; [8]
  Compatibility with Doxycycline Monohydrate: No
[1]; visual inspection
  Compatibility with MCH: hydrophilic solvents: incompatible
[1]
  Compatibility with Minocycline HCl: No
[3]; [9]
  Visual inspection after the storage at 25° C.: Yellow solution
  Visual inspection after the storage at 40° C.: Brownish orange
  Visual inspection after the storage at 50° C.: Orange solution
[3]; mixture of 1.04% w/w Doxycycline Hyclate with the ingredient, two weeks study
  Visual inspection at T-0: yellow solution
[3]; [8]
  Compatibility with Doxycycline Hyclate: No

## C[S+](C)[O-] [Dimethyl Sulfoxide]
[1]; visual inspection
  Compatibility with MCH: hydrophilic solvents: incompatible

## CC(C)OC(=O)CCCCC(=O)OC(C)C [Disopropyl adipate]
[1]; visual inspection
  Compatibility with MCH: oily emollients and waxes: compatible

## C[C@H]1c2cccc(O)c2C(=O)C2=C(O)[C@]3(O)C(=O)C(C(N)=O)=C(O)[C@@H](N(C)C)[C@@H]3[C@@H](O)[C@@H]21 [Doxycycline, doxycycline]
mouse
  Oral acute toxicity LD50: 1007 mg/kg

## C#Cc1cccc(Nc2ncnc3cc(OCCOC)c(OCCOC)cc23)c1 [Erlotinib]
[4]
  Patients who developed a grade 3 rash: 9%
  Patients who developed a rash in all grades: 75%

## CCO [Ethanol]
[2]
  Visual inspection after the storage at 25° C.: Brown solution
  Visual inspection after the storage at 40° C.: Brown solution
  Visual inspection after the storage at 50° C.: Black solution
[2]; [10]
  Compatibility with Doxycycline Monohydrate: changed their colour from yellow to orange
[2]; [11]
  Compatibility with Doxycycline Monohydrate: oxidized
[2]; [8]
  Compatibility with Doxycycline Monohydrate: No
[1]; visual inspection
  Compatibility with MCH: hydrophilic solvents: incompatible
[1]
  Compatibility with Minocycline HCl (discussion of compatibility studies): changed their colour from yellow to orange
  Compatibility with Minocycline HCl: No
[3]; [10]
  Compatibility with Doxycycline Hyclate: stability
[3]; [11]
  Compatibility with Doxycycline Hyclate: stable
[3]; [8]
  Compatibility with Doxycycline Hyclate: Yes

## OCC(O)CO [Glycerin]
[2]; [8]
  Compatibility with Doxycycline Monohydrate: No
[1]; visual inspection
  Compatibility with MCH: hydrophilic solvents: incompatible
[1]
  Compatibility with Minocycline HCl (discussion of compatibility studies): intensive oxidation
  Compatibility with Minocycline HCl: No
[3]; [8]
  Compatibility with Doxycycline Hyclate: No

## CCCCCCCCCCCCCCCCCC(=O)OCC(O)CO (stereo not drawn) [Glyceryl monostearate]
[1]; visual inspection
  Compatibility with MCH: surfactants: incompatible

## CCCCCCCCCCCCCC(=O)OC(C)C [Isopropyl myristate]
[1]; visual inspection
  Compatibility with MCH: oily emollients and waxes: compatible

## CC(C)CCCCCCCCCCCCCCC(=O)O [Isostearic acid]
[1]; [7]
  Compatibility with MCH: foam adjuvants: not compatible
[1]
  Compatibility with Minocycline HCl: No
[3]; [8]
  Compatibility with Doxycycline Hyclate: Yes

## CC(C)CCCCCCCCCCCCCCCO [Isostearyl alcohol]
[1]; [7]
  Compatibility with MCH: foam adjuvants: compatible

## CC1CCC(C(C)C)C(O)C1 (stereo not drawn) [Menthol]
[1]; [7]
  Compatibility with MCH: additives: compatible

## CCCCCCCCCCCCCCO [Myristyl alcohol]
[1]; [7]
  Compatibility with MCH: foam adjuvants: compatible
[1]
  Compatibility with Minocycline HCl: Yes
[3]; [8]
  Compatibility with Doxycycline Hyclate: Yes

## CCCCCCCCCCC(CO)CCCCCCCC (stereo not drawn) [Octyl dodecanol]
[2]; [12]
  Compatibility with Doxycycline Monohydrate: incompatibility
[2]; [8]
  Compatibility with Doxycycline Monohydrate: No
[1]; visual inspection
  Compatibility with MCH: oily emollients and waxes: compatible
[1]
  Compatibility with Minocycline HCl (discussion of compatibility studies): full compatibility; also recorded: compatible
  Compatibility with Minocycline HCl: Yes
[3]; [12]
  Compatibility with Doxycycline Hyclate: incompatibility
[3]; [8]
  Compatibility with Doxycycline Hyclate: No

## CCCCCCCC/C=C\CCCCCCCC(=O)O [Oleic acid]
[1]; [7]
  Compatibility with MCH: foam adjuvants: compatible

## CCCCCCCC/C=C\CCCCCCCCO [Oleyl alcohol]
[1]; [7]
  Compatibility with MCH: foam adjuvants: compatible
[1]
  Compatibility with Minocycline HCl: Yes
[3]; [8]
  Compatibility with Doxycycline Hyclate: Yes

## CCCCCCCCCCCCCCCC(=O)O [Palmitic acid]
[1]; [7]
  Compatibility with MCH: foam adjuvants: compatible

## CC(O)CO (stereo not drawn) [Propylene glycol]
[2]; [8]
  Compatibility with Doxycycline Monohydrate: No
[1]; visual inspection
  Compatibility with MCH: hydrophilic solvents: incompatible
[1]
  Compatibility with Minocycline HCl: No
[3]; [8]
  Compatibility with Doxycycline Hyclate: No

## CCCCCCCCCCCCCCCCCC(=O)O [Stearic acid]
[1]; [7]
  Compatibility with MCH: foam adjuvants: compatible

## CCCCCCCCCCCCCCCCCCO [Stearyl alcohol]
[1]; [7]
  Compatibility with MCH: foam adjuvants: compatible
[1]
  Compatibility with Minocycline HCl: Yes
[3]; [8]
  Compatibility with Doxycycline Hyclate: Yes

## Cc1c(C)c2c(c(C)c1O)CC[C@@](C)(CCC[C@H](C)CCC[C@H](C)CCCC(C)C)O2 [alpha-tocopherol]
[2]
  Effect of added anti-oxidant on oxidation of Doxycycline Monohydrate: did not prevent the oxidation
[1]
  Effect of added antioxidant on MCH degradation: did not prevent MCH degradation
  Effect of added anti-oxidant on oxidation of Minocycline HCl: did not prevent the oxidation
[3]
  Effect of added anti-oxidant on oxidation of Doxycycline Hyclate: did not prevent the oxidation

## O=C1O[C@H]([C@@H](O)CO)C(O)=C1O [ascorbic acid]
[2]
  Effect of added anti-oxidant on oxidation of Doxycycline Monohydrate: did not prevent the oxidation
[1]
  Effect of added anti-oxidant on oxidation of Minocycline HCl: did not prevent the oxidation
[3]
  Effect of added anti-oxidant on oxidation of Doxycycline Hyclate: did not prevent the oxidation

## CC[C@@H]1/C=C(\C)C[C@H](C)C[C@H](OC)[C@H]2O[C@@](O)(C(=O)C(=O)N3CCCC[C@H]3C(=O)O[C@H](/C(C)=C/[C@@H]3CC[C@H](Cl)[C@H](OC)C3)[C@H](C)[C@@H](O)CC1=O)[C@H](C)C[C@@H]2OC [pimecrolimus]
[5]; half face study, cetuximab, after 2 weeks
  Lesion counts on treated side of the face: significantly less

## CCCOC(=O)c1cc(O)c(O)c(O)c1 [propyl gallate]
[1]
  Effect of added antioxidant on MCH degradation: did not prevent MCH degradation

## CCOC(=O)c1ccc(C#Cc2ccc3c(c2)C(C)(C)CCS3)nc1 [tazarotene, Ethyl 6-[2-(4,4-dimethylthiochroman-6-yl)ethynyl] nicotinate]
[5]; cream twice a day
  Clinical benefit on EGFR inhibitor-induced rash: no observed clinical benefit
  Patients in whom the rash was assessed as more severe: 10%

## O [water]
[1]; minimal quantities of water (100 μL) added
  Effect of addition of water on MCH suspended in compatible excipients: prompt degradation of MCH

## Cyclomethicone
[1]; visual inspection
  Compatibility with MCH: oily emollients and waxes: compatible

## Doxycycline hyclate
[6]
  Lipid solubility: high degree
  Solubility in water: soluble

## SPAN 40
[1]; visual inspection
  Compatibility with MCH: surfactants: incompatible

## SPAN 60
[1]; visual inspection
  Compatibility with MCH: surfactants: incompatible

## SPAN 80
[1]; visual inspection
  Compatibility with MCH: surfactants: incompatible

## Sorbitan Monolaurate
[2]
  Visual inspection after the storage at 25° C.: orange solution
  Visual inspection after the storage at 40° C.: Brown solution
  Visual inspection after the storage at 50° C.: brown solution
  Visual inspection at T-0: Brown mixture
[2]; [8]
  Compatibility with Doxycycline Monohydrate: No
[1]
  Compatibility with Minocycline HCl: No
[3]; [9]
  Visual inspection after the storage at 25° C.: Brown solution
  Visual inspection after the storage at 40° C.: Brown solution
  Visual inspection after the storage at 50° C.: Black solution
[3]; [8]
  Compatibility with Doxycycline Hyclate: No

## Sorbitan Monostearate
[1]
  Compatibility with Minocycline HCl: Yes
[3]; [8]
  Compatibility with Doxycycline Hyclate: Yes

## Sorbitan sesquistearate
[1]; visual inspection
  Compatibility with MCH: surfactants: incompatible
